Test results reported in ChEMBL document CHEMBL1201862, “PubChem BioAssay data set” (2004).
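Compound exposure: 48 hours, 5 concentrations, 96-well plates. GI50 marks 50% less growth.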 Activity calls are given as the source filed them. No stated cut-off is given here; in the data, active = GI50 up to about 1.1 µM and inactive = higher.

Key:
Experiment in all cases: inhibition of tumour cell growth, NCI panel, 48 h
786-0 = tested on: 786-0
A549 = tested on: A549
ACHN = tested on: ACHN
CAKI-1 = tested on: CAKI-1
COLO 205 = tested on: COLO 205
DU-145 = tested on: DU-145
HL-60 = tested on: HL-60
Hs-578T = tested on: Hs-578T
LOX IMVI = tested on: LOX IMVI
M14 = tested on: M14
MCF7 = tested on: MCF7
MDA-MB-231 = tested on: MDA-MB-231
NCI-H460 = tested on: NCI-H460
NCI/ADR-RES = tested on: NCI/ADR-RES
OVCAR-8 = tested on: OVCAR-8
SF-539 = tested on: SF-539
SK-MEL-28 = tested on: SK-MEL-28
SN12C = tested on: SN12C
SNB-19 = tested on: SNB-19
UACC-257 = tested on: UACC-257

Measured: GI50

C/C(=N\NC(=S)NC(C)C)c1nc2cccnc2[nH]1
inactive: 786-0 20.3 µM | A549 31.5 µM | ACHN 21.9 µM | CAKI-1 18.2 µM | COLO 205 11 µM | DU-145 51.1 µM | HL-60 8.93 µM | Hs-578T 23.9 µM | LOX IMVI 30.2 µM | M14 57.9 µM | MCF7 21.9 µM | MDA-MB-231 > 26.7 µM | NCI-H460 14 µM | NCI/ADR-RES 40.5 µM | OVCAR-8 7.98 µM | SF-539 > 37.9 µM | SK-MEL-28 > 100 µM | SN12C > 56.5 µM | SNB-19 30.9 µM | UACC-257 34.6 µM

O=C(c1ccc(Cl)c(Cl)c1)N(Cc1cccnc1)C(=S)N(Cc1cccnc1)C(=O)c1ccc(Cl)c(Cl)c1
inactive: 786-0 20.4 µM | A549 > 100 µM | ACHN 18.8 µM | CAKI-1 31.6 µM | COLO 205 15.6 µM | DU-145 33.2 µM | HL-60 49.3 µM | Hs-578T 40.6 µM | LOX IMVI 30.7 µM | M14 21.2 µM | MCF7 7.06 µM | MDA-MB-231 33.1 µM | NCI-H460 44.7 µM | NCI/ADR-RES 31.3 µM | OVCAR-8 30.5 µM | SF-539 22.1 µM | SK-MEL-28 52.5 µM | SN12C 24.1 µM | SNB-19 27.9 µM | UACC-257 24.9 µM

CCC1C(C#N)=C(N)OC2=C1C(=O)CC(C)(C)C2 (stereo not given)
inactive: 786-0 > 100 µM | A549 > 100 µM | ACHN > 100 µM | CAKI-1 > 100 µM | COLO 205 > 100 µM | DU-145 > 100 µM | HL-60 > 100 µM | Hs-578T > 100 µM | LOX IMVI > 100 µM | M14 > 100 µM | MCF7 > 100 µM | MDA-MB-231 > 100 µM | NCI-H460 > 100 µM | NCI/ADR-RES > 100 µM | OVCAR-8 > 100 µM | SF-539 > 100 µM | SK-MEL-28 > 100 µM | SN12C > 100 µM | SNB-19 > 100 µM | UACC-257 35.9 µM

COC(=O)c1c(O)ccc2c1c1cc3ccccc3cc1n2Cc1cc(OC)cc(OC)c1
inactive: 786-0 3.55 µM | A549 3.37 µM | ACHN 1.74 µM | CAKI-1 2.18 µM | COLO 205 10.1 µM | DU-145 2.53 µM | HL-60 2.92 µM | Hs-578T 2.45 µM | LOX IMVI 9.31 µM | M14 2.25 µM | MCF7 1.73 µM | MDA-MB-231 6.55 µM | NCI-H460 2.57 µM | NCI/ADR-RES 1.4 µM | OVCAR-8 6.38 µM | SF-539 1.86 µM | SK-MEL-28 1.66 µM | SN12C 7.85 µM | SNB-19 5.82 µM | UACC-257 9.73 µM

COc1ccc2c3c1OC1C(=O)C=CC4(O)C(C2)NCC[C@@]314 (stereo not given in full)
inactive: 786-0 1.58 µM | A549 4.61 µM | ACHN 2.23 µM | CAKI-1 2.13 µM | COLO 205 1.44 µM | DU-145 3.24 µM | HL-60 1.8 µM | Hs-578T 2.19 µM | LOX IMVI 1.91 µM | M14 2.3 µM | MCF7 1.98 µM | MDA-MB-231 2.95 µM | NCI-H460 3.37 µM | NCI/ADR-RES 4 µM | OVCAR-8 1.69 µM | SF-539 1.55 µM | SK-MEL-28 2.92 µM | SN12C 1.51 µM | SNB-19 5.55 µM | UACC-257 1.77 µM
